For 66 compounds, IC50 results are on record in ChEMBL document CHEMBL1152676, “Combretastatin-like chalcones as inhibitors of microtubule polymerization. Part 1: synthesis and biological evaluation of antivascular activity” (Bioorg Med Chem, 2009).

Where only a bound is given, the exact number is not on record here.

The experiment relates to K562. The experiment can be described thus: Antiproliferative activity against human K562 cells after 5 days by MTT assay. It counts as functional, cell-based. (In general: Formazan colour is commonly taken as a measure of viable cells.)

For orientation: IC50 means the concentration needed to halve the response being measured. Low readings indicate greater potency in that assay, high ones weaker potency in that assay.

Turning to `COc1ccc(C(=O)/C=C/c2ccc(Cl)cc2)c(O)c1`, where the note is “Homo sapiens, K562, 120 h”, half-maximal inhibition (IC50) required 9.7 µM. Where the note is “Homo sapiens, K562, 120 h”, `CCCO/C(=C\c1ccc(OC)c(F)c1)C(=O)c1cc(OC)c(OC)c(OC)c1` came in with an IC50 of 0.02 µM. The same measure, in the same setting: the same measure for `CCO/C(=C\c1cc(F)c(OC)c(F)c1)C(=O)c1cc(OC)c(OC)c(OC)c1`: 0.23 µM. Turning to `COc1cc(C(=O)/C=C/c2ccc(F)cc2)cc(OC)c1OC`, the midpoint of inhibition (Homo sapiens, K562, 120 h), the IC50, lay at 1.5 µM. Consider `COc1ccc(/C=C/C(=O)c2cc(OC)c(OC)c(OC)c2)cc1`, for which the IC50 (Homo sapiens, K562, 120 h) amounted to 0.3 µM. This IC50 is about 5-fold lower than that of the compound before. On the same count and under the same terms, the result for `COc1ccc(C(=O)[C@H]2O[C@@H]2c2ccc(C)cc2)cc1` (relative stereo) reads above 30 µM; that for `COc1ccc(CCC(=O)c2cc(OC)c(OC)c(OC)c2)cc1O`, 1 µM. `COc1ccc(CCC(O)c2cc(OC)c(OC)c(OC)c2)cc1` (stereo unspecified) yielded an IC50 (Homo sapiens, K562, 120 h) of 4 µM.

Where the note is “Homo sapiens, K562, 120 h”, `COc1cc(/C=C/C(=O)c2ccccc2)cc(OC)c1OC` yielded an IC50 of 1.6 µM. The same measure, in the same setting: the result for `Cc1ccc(C(=O)[C@H]2O[C@@H]2c2ccc(C)cc2)cc1` (racemic) reads 12 µM; that for `COc1ccc([C@H]2O[C@@H]2C(=O)c2cc(OC)c(OC)c(OC)c2)cc1` (racemic), 4.9 µM. Same read-out and setting: the same measure for `COc1ccc(/C=C/C(=O)c2ccc(OC)cc2OC)cc1` [METOCHALCONE]: 2.7 µM; for `COc1cc(C(=O)/C=C/c2ccc(OCc3ccccc3)cc2)cc(OC)c1OC`: 9.9 µM. Still for that read-out and setting: the same measure for `CCO/C(=C\c1ccc(OC)c(F)c1)C(=O)c1cc(OC)c(OC)c(OC)c1`: 0.011 µM; for `COc1ccc(/C=C/C(=O)c2ccc(OC)c(OC)c2)cc1`: 10 µM.

Consider `COc1ccc(CCC(O)c2cc(OC)c(OC)c(OC)c2)cc1O` (stereo unspecified), for which the IC50 (Homo sapiens, K562, 120 h) turned out to be 1 µM. Compared with the last compound, the IC50 is about 10-fold lower. On the same count and under the same terms, the result for `COc1cc(C(=O)/C=C/c2ccc(Cl)cc2)cc(OC)c1OC` reads 1.5 µM. In turn, `COc1ccc(C(=O)/C=C/c2ccc(OC)c(OP(=O)(O)O)c2)cc1` showed an IC50 (k562) of 0.3 µM. Regarding `CCCO/C(=C\c1cc(F)c(OC)c(F)c1)C(=O)c1cc(OC)c(OC)c(OC)c1`, under “Homo sapiens, K562, 120 h”, the half-maximal inhibitory concentration (IC50) worked out at 0.22 µM. On the same count and under the same terms, the same measure for `COc1ccc(/C=C/C(=O)c2cc(OC)c(OC)c(OC)c2)cc1[N+](=O)[O-]`: 4 µM.

The compound `COc1cc(/C=C/C(=O)c2ccc3c(c2)OCCO3)cc(OC)c1OC` gave an IC50 (Homo sapiens, K562, 120 h) of 5.6 µM. On the same count and under the same terms, the same measure for `Cc1ccc(/C=C/C(=O)c2ccc(C)cc2)cc1` [4,4'-DIMETHYLCHALCONE]: 11 µM. Still for that read-out and setting: the same measure for `COc1ccc(/C=C/C(=O)c2ccc(OC)cc2)cc1` [4,4'-DIMETHOXYCHALCONE]: 15 µM; for `COc1ccc(C(=O)/C=C/c2cc(OC)c(OC)c(OC)c2)cc1OC`: 1.1 µM; for `COc1ccc([C@H]2O[C@@H]2C(=O)c2ccc(C)cc2)cc1` (racemic): 15 µM. Same read-out and setting: the same measure for `COc1ccc(C(=O)/C=C/c2ccc(O)c(O)c2)c(OC)c1OC`: 1.7 µM; for `COc1cc(C(=O)[C@H]2O[C@@H]2c2cc(OC)c(OC)c(OC)c2)cc(OC)c1OC` (relative stereo): 3.7 µM. Take `COc1ccc(/C=C/C(O)c2cc(OC)c(OC)c(OC)c2)cc1O` (stereo unspecified): the IC50 (Homo sapiens, K562, 120 h) came to 0.5 µM. Same read-out and setting: the result for `COc1ccc(CC(C)C(O)c2cc(OC)c(OC)c(OC)c2)cc1O` (stereo unspecified) reads 0.6 µM.

Consider `COc1ccc(/C=C/C(O)c2cc(OC)c(OC)c(OC)c2)cc1` (stereo unspecified), for which, where the note is “Homo sapiens, K562, 120 h”, the IC50 was 4 µM. On the same count and under the same terms, the same measure for `COc1cc(C(=O)/C=C/c2cc(OC)c(OC)c(OC)c2)ccc1O`: 3.5 µM. Compound `COc1ccc(C(=O)/C(C)=C/c2ccc(OC)c(OP(=O)(O)O)c2)cc1` gave an IC50 (k562) of 0.5 µM. `COc1ccc(C(=O)/C=C/c2cc(OC)ccc2OC)c(Cl)c1` gave an IC50 (Homo sapiens, K562, 120 h) of 4 µM. Same read-out and setting: the same measure for `COc1cc(/C=C(\C)C(=O)c2cc(OC)c(OC)c(OC)c2)cc(OC)c1OC`: 2.5 µM. The same measure, in the same setting: the same measure for `COc1ccc(C(=O)[C@H]2O[C@@H]2c2ccc(OC)c(OC)c2)cc1` (racemic): above 30 µM; for `COc1ccc(C(=O)[C@H]2O[C@@H]2c2ccc(OC)cc2)cc1` (racemic): above 30 µM. On the same count and under the same terms, the result for `CCO/C(=C\c1ccc(OC)c(O)c1)C(=O)c1cc(OC)c(OC)c(OC)c1` reads 0.0026 µM. As to `COc1ccc(OC)c(C(=O)/C=C/c2ccc3c(c2)OCCO3)c1`, the IC50 (Homo sapiens, K562, 120 h) is 0.3 µM.

Under “Homo sapiens, K562, 120 h”, `O=C(/C=C/c1ccccc1)c1ccccc1` [CHALCONE] had an IC50 of 3.8 µM. Still for that read-out and setting: the result for `COc1cc(/C=C/C(=O)c2cc(OC)c(OC)c(OC)c2)cc(OC)c1OC` reads 1.5 µM; that for `O=C(/C=C/c1ccc2c(c1)OCO2)c1ccc2c(c1)OCCO2`, 8 µM. On the same count and under the same terms, the same measure for `COc1ccc(/C=C/C(=O)c2ccc(C)cc2)cc1`: 20 µM.

Regarding `COc1ccc(C(=O)/C(C)=C/c2cc(OC)ccc2OC)cc1`, the IC50 (Homo sapiens, K562, 120 h) came to 2.3 µM. Same read-out and setting: the result for `COc1ccc(CCCc2cc(OC)c(OC)c(OC)c2)cc1` reads 0.5 µM; that for `COc1ccc(/C=C/C(=O)c2ccc(C)cc2)cc1O`, 1.5 µM. On the same count and under the same terms, the same measure for `O=C(/C=C/c1ccc(F)cc1)c1ccc(F)cc1`: 4.9 µM; for `COc1cc(C(=O)/C=C/c2ccc(O)c(O)c2)cc(OC)c1OC`: 1.2 µM; for `COc1ccc(/C=C(\C)C(=O)c2ccc(OC)cc2)cc1`: 1.9 µM. On the same count and under the same terms, the same measure for `COc1ccc(/C=C/C(=O)c2ccc(O)cc2)cc1`: 9.9 µM. Turning to `COc1ccc(/C=C/C(=O)c2ccc(OC)c(OC)c2OC)cc1`, the IC50 (Homo sapiens, K562, 120 h) was 0.3 µM. Still for that read-out and setting: the same measure for `CCC/C(=C\c1ccc(OC)c(O)c1)C(=O)c1cc(OC)c(OC)c(OC)c1`: 0.0022 µM; for `COc1ccc(C(=O)/C=C/c2ccc(OC)c(OC)c2)c(O)c1`: 16 µM. In the case of `COc1cc(/C=C/C(=O)c2ccc(F)cc2)cc(OC)c1OC`, the IC50 (Homo sapiens, K562, 120 h) was 1.6 µM. Same read-out and setting: the result for `COc1ccc(C(=O)CCc2cc(OC)c(OC)c(OC)c2)cc1` reads 12 µM; that for `COc1ccc(OC)c(/C=C/C(=O)c2ccc3c(c2)OCO3)c1`, 6.4 µM; that for `COc1ccc(/C=C/C(=O)c2ccc3c(c2)OCO3)cc1OC`, 7.1 µM. Still for that read-out and setting: the result for `COc1cc(OC)c(C=C(C)C(=O)c2cc(OC)c(OC)c(OC)c2)c(OC)c1` reads above 25 µM; that for `COc1ccc(/C=C/C(=O)c2ccc(OC)c(OC)c2)cc1OC`, 2.2 µM.

As to `COc1ccc(CCC(=O)c2cc(OC)c(OC)c(OC)c2)cc1`, the IC50 (Homo sapiens, K562, 120 h) stood at 10 µM. Still for that read-out and setting: the same measure for `COc1cc(/C=C/C(=O)c2ccc3c(c2)OCO3)cc(OC)c1OC`: 2.9 µM; for `O=C(/C=C/c1ccc2c(c1)OCO2)c1ccc(F)cc1`: 5.1 µM; for `COc1ccc(OC)c(/C=C/C(=O)c2c(OC)cc(OC)cc2OC)c1`: 7.2 µM. On the same count and under the same terms, the same measure for `COc1cc(C(=O)/C=C/c2ccc(Cl)cc2Cl)cc(OC)c1OC`: 3.8 µM. Still for that read-out and setting: the same measure for `COc1ccc(OC)c(C(=O)/C=C/c2ccc(N(C)C)cc2)c1`: 0.04 µM; for `COc1cc(C(=O)[C@H]2O[C@@H]2c2ccc(C)cc2)cc(OC)c1OC` (racemic): 3.4 µM; for `COc1ccc(C(=O)/C=C/c2cc(OC)c(OC)c(OC)c2)c(O)c1`: 4.4 µM.
